Data taken from patent US11999727B2 (Tango Therapeutics, Inc., priority 2020, dated 2024).

How the values were obtained:
[1] = target: T1, PRMT5 (Homo sapiens, UniProt O14744); test: PRMT5 biochemical IC50 assay with SAM as cofactor; settings: PRMT5, SAM as cofactor; read-out: SAM IC50
T1 construct: purchased Viva (custom protein)

[2] = target: T1, PRMT5; test: PRMT5 biochemical IC50 assay with no cofactor; settings: PRMT5, no cofactor; read-out: No Cofactor/rel IC50
Excerpt: Table 1 indicates IC50 values (μM) against PRMT5 for exemplary compounds in the presence of SAM as cofactor, with no cofactor, and with MTA as cofactor, respectively (columns 4-6). […] Ki values can be calculated from the IC50 values as described in the Examples section. As detailed in the Examples section, for the assay performed in the presence of SAM, IC50=Ki×1.5 (Ki=IC50/1.5).

[3] = target: T1, PRMT5; test: PRMT5 biochemical IC50 assay with MTA as cofactor; settings: PRMT5, MTA as cofactor; read-out: MTA IC50
[4] = system: HAP1 MTAP-intact cell line; test: SDMA in-cell western assay, HAP1 MTAP-intact; assay type: cell-based; settings: Homo sapiens, HAP1, SDMA in-cell western, HAP1 MTAP-intact; read-out: MTAP HAP1 intact IC50
In short: (§1)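 Compounds were tested in HAP1 cells differing only in MTAP status (endogenous expression versus null). Cellular SDMA levels were then measured by in-cell western, giving an IC50 in each background.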

[5] = system: HAP1 MTAP-deleted cell line; test: SDMA in-cell western assay, HAP1 MTAP-deleted; assay type: cell-based; settings: for IC50: Homo sapiens, HAP1, SDMA in-cell western, HAP1 MTAP-deleted; for MTAP intact/deleted ratio: IC50 ratio HAP1 MTAP-intact / HAP1 MTAP-deleted, SDMA in-cell western
In short: as §1

[6] = system: HAP1 MTAP-deleted cell line; test: Viability assay, MTAP-deleted cell line; assay type: cell-based; settings: Homo sapiens, HAP1, viability assay, read-out: HAP1 MTAP deleted viability
Excerpt: Table 1 additionally indicates IC50 values in a viability assay for the MTAP-deleted cell line (column 10), indicating the effect of treatment with compound on cell survival.

[7] = read-out: HAP 1 MTAP deleted IC50

T1 sequence (O14744 whole entry): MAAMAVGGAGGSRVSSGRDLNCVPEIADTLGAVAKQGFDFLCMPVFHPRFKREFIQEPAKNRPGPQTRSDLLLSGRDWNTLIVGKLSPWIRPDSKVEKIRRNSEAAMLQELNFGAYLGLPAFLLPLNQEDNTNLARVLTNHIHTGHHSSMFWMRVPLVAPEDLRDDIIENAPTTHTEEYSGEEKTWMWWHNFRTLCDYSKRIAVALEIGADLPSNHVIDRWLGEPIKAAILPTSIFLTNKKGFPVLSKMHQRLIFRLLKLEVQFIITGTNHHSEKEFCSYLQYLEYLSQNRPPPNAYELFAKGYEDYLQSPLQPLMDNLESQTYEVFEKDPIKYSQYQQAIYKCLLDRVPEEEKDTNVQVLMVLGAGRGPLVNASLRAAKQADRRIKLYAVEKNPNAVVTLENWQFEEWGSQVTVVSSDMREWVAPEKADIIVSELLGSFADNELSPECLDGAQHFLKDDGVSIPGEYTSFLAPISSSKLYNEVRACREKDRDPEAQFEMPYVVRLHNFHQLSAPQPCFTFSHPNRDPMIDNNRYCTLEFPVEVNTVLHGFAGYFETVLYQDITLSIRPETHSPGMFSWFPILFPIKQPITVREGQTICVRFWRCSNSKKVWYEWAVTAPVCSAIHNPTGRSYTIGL
T1 sequence (Q9BQA1 whole entry partner): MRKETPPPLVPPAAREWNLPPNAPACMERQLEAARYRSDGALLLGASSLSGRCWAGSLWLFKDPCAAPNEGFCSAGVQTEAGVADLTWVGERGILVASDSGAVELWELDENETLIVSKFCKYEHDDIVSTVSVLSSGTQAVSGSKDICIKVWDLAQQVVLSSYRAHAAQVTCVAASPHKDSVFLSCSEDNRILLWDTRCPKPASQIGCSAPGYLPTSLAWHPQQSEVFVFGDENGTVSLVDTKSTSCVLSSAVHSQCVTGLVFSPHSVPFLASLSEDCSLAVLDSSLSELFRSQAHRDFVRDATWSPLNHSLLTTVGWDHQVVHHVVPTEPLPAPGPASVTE

| Structure (SMILES) | IC50 [1] | IC50 [2] | IC50 [3] | IC50 [4] | IC50 ([5]; read-out: HAP1 MTAP deleted IC50) | MTAP intact/deleted ratio [5] | IC50 ([6]; HAP1 MTAP-deleted) | IC50 [5, 7] | IC50 ([6]; MTAP-deleted cell line) |
| --- | --- | --- | --- | --- | --- | --- | --- | --- | --- |
| Cc1ccc([C@@H]2CC[C@H](C)CN2C(=O)C(=O)Nc2cncc(C(N)=O)c2)nc1 (racemic) [Compound 880, 5-[[2-[(2R,5R)-5-Methyl-2-(5-methyl-2-pyridyl)-1-piperidyl]-2-oxo-acetyl]amino]pyridine-3-carboxamide] | > 500 nM | > 500 nM | 50 to 500 nM | > 1000 nM | 100 to 1000 nM | A (an IC50 ratio greater than or equal to 10 fold) | > 10000 nM |  |  |
| COc1ncc(NC(=O)C(=O)N2C[C@@H](C)CC[C@H]2c2ccc(C)cn2)cc1C(N)=O (racemic) [Compound 886, 2-Methoxy-5-[[2-[(2R,5R)-5-methyl-2-(5-methyl-2-pyridyl)-1-piperidyl]-2-oxo-acetyl]amino]pyridine-3-carboxamide] | > 500 nM | > 500 nM | 50 to 500 nM | > 1000 nM |  | B (an IC50 ratio greater than or equal to 3 fold but lower than 10 fold) |  | > 1000 nM | > 10000 nM |
| C[C@@H]1CC[C@@H](c2cnc3c(c2)CCC(=O)N3)N(C(=O)C(=O)Nc2cncc(C(N)=O)c2)C1 (racemic) [Compound 888, rac-5-[[2-[(2S,5R)-5-Methyl-2-(7-oxo-6,8-dihydro-5H-1,8-naphthyridin-3-yl)-1-piperidyl]-2-oxo-acetyl]amino]pyridine-3-carboxamide] | 50 to 500 nM | 50 to 500 nM | 50 to 500 nM | > 1000 nM |  | C (an IC50 ratio of less than 3 fold) |  | > 1000 nM | > 10000 nM |
| C[C@@H]1CC[C@@H](c2ccc(F)cc2)N(C(=O)C(=O)Nc2cnc(OC(F)F)c(C(N)=O)c2)C1 (racemic) [Compound 889, 2-(difluoromethoxy)-5-(2-(2-(4-fluorophenyl)-5-methylpiperidin-1-yl)-2-oxoacetamido)nicotinamide] | > 500 nM | 50 to 500 nM | 50 to 500 nM | > 1000 nM |  | B (an IC50 ratio greater than or equal to 3 fold but lower than 10 fold) |  | > 1000 nM | > 10000 nM |
| COc1ncc(NC(=O)C(=O)N2C[C@@H](C)CC[C@@H]2c2cnc3c(c2)CCC(=O)N3)cc1C(N)=O (racemic) [Compound 891, rac-2-Methoxy-5-[[2-[(2S,5R)-5-methyl-2-(7-oxo-6,8-dihydro-5H-1,8-naphthyridin-3-yl)-1-piperidyl]-2-oxo-acetyl]amino]pyridine-3-carboxamide] | 50 to 500 nM | 50 to 500 nM | 50 to 500 nM | > 1000 nM |  | A (an IC50 ratio greater than or equal to 10 fold) |  | 100 to 1000 nM | > 10000 nM |
| C[C@@H]1C[C@@H](F)[C@@H](c2ccc(F)cc2)N(C(=O)C(=O)Nc2cncc(C(N)=O)c2)C1 (racemic) [Compound 898, 5-[[2-[(2R,3R,5R)-3-fluoro-2-(4-fluorophenyl)-5-methyl-1-piperidyl]-2-oxo-acetyl]amino]pyridine-3-carboxamide] | > 500 nM | 50 to 500 nM | 50 to 500 nM | > 1000 nM |  | A (an IC50 ratio greater than or equal to 10 fold) |  | 100 to 1000 nM | 1000 to 10000 nM |
| Cc1cc(NC(=O)C(=O)N2CC[C@H](N(C)C)C[C@H]2c2ccccc2)cnc1N (racemic) [Compound 906] | 50 to 500 nM | > 500 nM | 50 to 500 nM | > 1000 nM |  | C (an IC50 ratio of less than 3 fold) |  | > 1000 nM | > 10000 nM |
| CNc1ccc([C@@H]2CC[C@@H](C)CN2C(=O)C(=O)Nc2cncc(C(N)=O)c2)nc1 (racemic) [Compound 907, 5-[[2-[(2R,5S)-5-methyl-2-[5-(methylamino)-2-pyridyl]-1-piperidyl]-2-oxo-acetyl]amino]pyridine-3-carboxamide] | 50 to 500 nM | 50 to 500 nM | 50 to 500 nM | > 1000 nM |  | A (an IC50 ratio greater than or equal to 10 fold) |  | < 100 nM | 1000 to 10000 nM |
| CCc1cc(NC(=O)C(=O)N2C[C@H](C)CC[C@H]2c2cccc3[nH]ncc23)cnc1N (racemic) [Compound 911, N-(6-amino-5-ethyl-3-pyridyl)-2-[(2S,5R)-2-(1H-indazol-4-yl)-5-methyl-1-piperidyl]-2-oxo-acetamide] | > 500 nM | > 500 nM | > 500 nM | > 1000 nM |  | C (an IC50 ratio of less than 3 fold) |  | > 1000 nM | > 10000 nM |
| Cc1cc(NC(=O)C(=O)N2C[C@H](C)CC[C@H]2c2ccc3nn(C)cc3c2)cnc1N (racemic) [Compound 912] | 50 to 500 nM | 50 to 500 nM | 50 to 500 nM | 100 to 1000 nM |  | A (an IC50 ratio greater than or equal to 10 fold) |  | < 100 nM | < 1000 nM |
| CCc1cc(NC(=O)C(=O)N2C[C@@H](C)CC[C@@H]2c2cnc3c(c2)CCC(=O)N3)cnc1N (racemic) [Compound 916, rac-N-(6-Amino-5-ethyl-3-pyridyl)-2-[(2S,5R)-5-methyl-2-(7-oxo-6,8-dihydro-5H-1,8-naphthyridin-3-yl)-1-piperidyl]-2-oxo-acetamide] | > 500 nM | 50 to 500 nM | 50 to 500 nM | > 1000 nM |  | A (an IC50 ratio greater than or equal to 10 fold) |  | < 100 nM | 1000 to 10000 nM |
| Cc1cc(NC(=O)C(=O)N2C[C@H](C)CC[C@H]2c2ccc3sc(N)nc3c2)cnc1C (racemic) [Compound 920, 2-[(2R,5S)-2-(2-amino-1,3-benzothiazol-5-yl)-5-methyl-1-piperidyl]-N-(5,6-dimethyl-3-pyridyl)-2-oxo-acetamide] | 50 to 500 nM | 50 to 500 nM | 50 to 500 nM | > 1000 nM |  | A (an IC50 ratio greater than or equal to 10 fold) |  | < 100 nM | 1000 to 10000 nM |
| Cc1cc(NC(=O)C(=O)N2C[C@H](C)CC[C@H]2c2cnc3c(c2)CCC(=O)N3)cnc1N (racemic) [Compound 923, rac-N-(6-Amino-5-methyl-3-pyridyl)-2-[(2S,5R)-5-methyl-2-(7-oxo-6,8-dihydro-5H-1,8-naphthyridin-3-yl)-1-piperidyl]-2-oxo-acetamide] | 50 to 500 nM | 50 to 500 nM | 50 to 500 nM | > 1000 nM |  | A (an IC50 ratio greater than or equal to 10 fold) |  | 100 to 1000 nM | 1000 to 10000 nM |
| COc1ncc(NC(=O)C(=O)N2C[C@H](C)CC[C@H]2c2ccc(C)cn2)cc1C(N)=O (racemic) [Compound 932, 2-Methoxy-5-[[2-[(2R,5S)-5-methyl-2-(5-methyl-2-pyridyl)-1-piperidyl]-2-oxo-acetyl]amino]pyridine-3-carboxamide] | 50 to 500 nM | 50 to 500 nM | 50 to 500 nM | > 1000 nM |  | A (an IC50 ratio greater than or equal to 10 fold) |  | < 100 nM | 1000 to 10000 nM |
| Cc1ccc([C@H]2CC[C@H](C)CN2C(=O)C(=O)Nc2cncc(C(N)=O)c2)nc1 (racemic) [Compound 937, 5-[[2-[(2R,5S)-5-Methyl-2-(5-methyl-2-pyridyl)-1-piperidyl]-2-oxo-acetyl]amino]pyridine-3-carboxamide] | 50 to 500 nM | 50 to 500 nM | 50 to 500 nM | > 1000 nM |  | A (an IC50 ratio greater than or equal to 10 fold) |  | 100 to 1000 nM | 1000 to 10000 nM |
| Cc1cc(NC(=O)C(=O)N2C[C@H](C)C[C@@H](F)[C@H]2c2ccc(F)cc2)cnc1N (racemic) [Compound 939, N-(6-amino-5-methyl-3-pyridyl)-2-[(2R,3R,5R)-3-fluoro-2-(4-fluorophenyl)-5-methyl-1-piperidyl]-2-oxo-acetamide] | 50 to 500 nM | 50 to 500 nM | 50 to 500 nM | > 1000 nM |  | A (an IC50 ratio greater than or equal to 10 fold) |  | 100 to 1000 nM | 1000 to 10000 nM |
| Cc1cc(NC(=O)C(=O)N2C[C@H](C)C[C@H](F)[C@@H]2c2ccc(F)cc2)cnc1N (racemic) [Compound 940, N-(6-amino-5-methyl-3-pyridyl)-2-[(2R,3R,5S)-3-fluoro-2-(4-fluorophenyl)-5-methyl-1-piperidyl]-2-oxo-acetamide] | 50 to 500 nM | 50 to 500 nM | 50 to 500 nM | > 1000 nM |  | A (an IC50 ratio greater than or equal to 10 fold) |  | 100 to 1000 nM | 1000 to 10000 nM |
